The values that follow come from patent US20250163078A1, “IMIDAZOPYRIDAZINE DERIVATIVE, AND PREPARATION METHOD THEREFOR, PHARMACEUTICAL COMPOSITION THEREOF AND USE THEREOF” (SHANGHAI SIMR BIOTECHNOLOGY CO., LTD., priority 2022, published 2025).

One assay addresses T1, α1-GABAA receptor (Homo sapiens, UniProt P14867+P18507).
T1 construct: expressed in transfected cells
The assay is described as follows: Whole-cell patch-clamp electrophysiological test of positive allosteric modulation, α1-GABAAR-HEK293 cells. As to conditions: compound 100 nM; GABA about EC2-4; normalised to positive compound CVL-865 (=100%); negative value = reverse allosteric modulation; read-out: Positive allosteric modulation activity on α1-GABAAR. Format: cell-based. The text has this: (§1) An α subunit, a β subunit, and a γ subunit are essential for the formation of a complete functional GABAA receptor. […] The α1-GABAAR-HEK293 cell model simultaneously expressed the α1 subunit (protein sequence available in GenBank with an accession No.: NM_000806.5), the β3 subunit (protein sequence available in GenBank with an accession No.: NM_000814.5), and the γ2 subunit (protein sequence available in GenBank with an accession No.: NM_000816.3). The α2-GABAAR-HEK293 cell model simultaneously expressed the α2 subunit (protein sequence available in GenBank with an accession No.: NM_000807.4), the β3 subunit (protein sequence available in GenBank with an accession No.: NM_000814.5), and the γ2 subunit (protein sequence available in GenBank with an accession No.: NM_000816.3).
(§2) The above cell lines were subcultured. The α2-GABAAR-HEK293 cells were expanded for assay of the benzodiazepine (BZD) site affinity of compounds for GABAA receptors.
(§3) The positive regulation activity of the test drugs on the α1-GABAA receptor and the α2-GABAA receptor was detected by the electrophysiological method. The specific method was as follows:
(§4) Compound concentration setting: the final concentration of the compounds used for screening was 100 nM. […] The components of the extracellular solution (ECS) for electrophysiology were as follows: 150 mM NaCl, 5 mM KCl, 2.5 mM CaCl2, 1 mM MgCl2, 10 mM HEPES, and 10 mM glucose (pH 7.4); the formulation of the intracellular solution (ICS) of electrodes for electrophysiology was as follows: 140 mM CsCl, 11 mM EGTA, 10 mM HEPES, 2 mM CaCl2, 1 mM MgCl2, 4 mM MgATP, and 2 mM TEA (pH 7.3). GABA (γ-aminobutyric acid) powder was prepared into a mother liquor with pure water, which was then diluted in ECS; the compounds were first prepared into 4 mM mother liquors with dimethyl sulfoxide and then gradually diluted to corresponding concentrations in GABA-ECS. The solutions were all prepared freshly prior to the electrophysiological test.
(§5) Electrophysiological signal acquisition was performed using an EPC 10 amplifier and PatchMaster software (HEKA) or an Axon700B amplifier and Clampex software (AXON).
(§6) The recording electrode was made by pulling borosilicate glass, with an electrode resistance of 4-6 MΩ. Extracellular administration was performed using the ALA-VC-8PG™ system. A single, independently growing cell was selected. After the glass electrode formed a good seal with the cell, the membrane was ruptured to form the whole-cell configuration. The cell membrane potential was clamped at −60 mV and recorded in Gap-free mode. During the test, the extracellular solution was first applied extracellularly for about 20 s. After the baseline (Iprebaseline) stabilized, the extracellular solution was switched to GABA-ECS. At this time, the current caused by GABA (Igaba) could be detected. After about 10-20 s, when the current stabilized, the extracellular solution was switched to a mixed solution of the compound and GABA-ECS. At this point, the current caused by both the compound and GABA (Itreatment) could be detected. Finally, the solution was switched to the extracellular solution, and the test was terminated after recording for 20-40 s.
(§7) The current values at each stage were calculated based on the average value of the current after stabilization under the corresponding conditions. We defined the control current as Igaba−Iprebaseline, and the current after compound treatment as Itreatment−Iprebaseline. The allosteric modulation activity of the compounds was expressed as a percentage, calculated by the following formula: functional activity=[(Itreatment−Igaba)/(Igaba−Iprebaseline)]×100%.
In general terms: In patch-clamp work, channel activity is measured electrically.

The target in assay [1] is T2, α2-GABAA receptor (Homo sapiens, UniProt P18507+P47869).
T2 construct: expressed in transfected cells
In words: Radioligand (3H-flunitrazepam) competitive binding assay at the BZD site. As to conditions: membranes of HEK293 cells stably expressing human α2-GABAA receptor (α2β3γ2); 1 nM 3H-flunitrazepam; Ki calculated from IC50; read-out: α2 Ki.
Source text: as §1, §2
The affinity of the compounds for the α2-GABAA receptor was determined by competing with ^3H-flunitrazepam (isotope ^3H-labelled flunitrazepam) for binding to the BZD site on the membrane proteins of HEK293 cells stably expressing the human α2-GABAA receptor.
Membrane preparation: The cells were suspended in 50 mM Tris-HCl buffer (pH=7.4), homogenized 10 times (20 s for each time) with a homogenizer on ice, and then centrifuged at 4° C. at 1000 g for 10 min. The supernatant was taken. The above steps were repeated. The supernatant was centrifuged (33800 g; Thermo, rotor: A27-8×50) at 4° C. for 60 min. The pellet was resuspended in Tris buffer (50 mM Tris-HCl, 10 mM MgCl2, 0.5 mM EDTA, and 10% glycerol). The protein content was determined (BCA (bicinchoninic acid) protein quantification assay based on the copper ion reduction method, with a BCA kit purchased from Pierce (Annoron (Beijing) Biotechnology Co., Ltd.)), and 1 mL aliquots were prepared and stored at −80° C.
Radioligand competitive binding assay: This assay was performed in a 200 μL system (96-well plate) containing 100 μL of cell membranes. The concentration of ^3H-flunitrazepam was 1 nM, and the concentrations of the test compounds were in the range of […]. Flumazenil was used as a control. To each low control (LC) well was added 1 μL of 2 mM flumazenil (the final concentration of 10 μM), and to each high control (HC) well was added 1 μL of dimethyl sulfoxide. The final concentration of the target membrane protein was […]. All sample stock solutions of test compounds were 10 mM solutions in dimethyl sulfoxide. All the samples were diluted to a concentration of 0.2 mM with dimethyl sulfoxide, and then subjected to a 4-fold serial dilution to give a total of 8 working concentration gradients. The 96-well plate was sealed with a plate sealing membrane and then incubated on a shaker at room temperature for 1 h. Meanwhile, a GF/C filter plate was soaked in a plate soaking buffer (0.3% PEI (polyethyleneimine, purchased from: Sigma-Aldrich, model: P314), stored at 4° C.) for at least 0.5 h. After the binding incubation was completed, the cells were harvested onto the GF/C filter plate using a cell harvester and washed 4 times with a washing buffer (50 mM Tris-HCl, pH 7.4, stored at 4° C.). After drying in an oven at 50° C. for 1 h, the dried GF/C filter plate was bottom-sealed. The residual radioactivity on the filter membrane was detected by liquid scintillation counting. Scintillation fluid was added at 50 µL/well, and then the plate was sealed. Readings were taken using Microbeta^2 (microplate counter, purchased from: PerkinElmer, model: CNLL0153). The inhibitory activity of the test samples on the binding of ^3H-flunitrazepam to the GABAA receptor membrane protein was calculated.

For assay [2], the target named is T2, α2-GABAA receptor. In words: Whole-cell patch-clamp electrophysiological test of positive allosteric modulation, α2-GABAAR-HEK293 cells. Conditions: compound 100 nM; GABA 0.10-0.11 M [sic] (about EC70.8); normalised to positive compound CVL-865 (=100%); read-out: Positive allosteric modulation activity on α2-GABAAR. Format: cell-based.
Source text: as §1, §2, §3, §4, §5, §6, §7

With `CCn1cnc2c(-c3ccc(F)c(-c4ccn5c(C6CC6)nnc5c4COC)c3)cnnc21` [Example 1, 4-(3-(3-Cyclopropyl-8-(methoxymethyl)-[1,2,4]triazolo[4,3-a]pyridin-7-yl)-4-fluorophenyl)-7-ethyl-7H-imidazo[4,5-c]pyridazine], the activation at 0.1 µM at α1-GABAA receptor amounted to 70%; on α2-GABAA receptor [2] it was 129%. Moreover, the Ki (commonly the equilibrium dissociation constant of an inhibitor or competing ligand from its target) on α2-GABAA receptor [1] was 10.5 nM.

With `CCn1cnc2c(-c3ccc(F)c(-c4ccn5c(C6CC(OC)C6)nnc5c4OC)c3)cnnc21` (centres unmarked) [Example 6, 7-Ethyl-4-(4-fluoro-3-(8-methoxy-3-(3-methoxycyclobutyl)-[1,2,4]triazolo[4,3-a]pyridin-7-yl)phenyl)-7H-imidazo[4,5-c]pyridazine], the activation at 0.1 µM was -16% on α1-GABAA receptor and 118% on α2-GABAA receptor [2].

Turning to `CCn1cnc2c(-c3ccc(F)c(-c4cn5cc(C6(F)CC6)nc5cc4OC)c3)cnnc21` [Example 12, 7-Ethyl-4-(4-fluoro-3-(2-(1-fluorocyclopropyl)-7-methoxyimidazo[1,2-a]pyridin-6-yl)phenyl)-7H-imidazo[4,5-c]pyridazine], the activation at 0.1 µM at α1-GABAA receptor is 32%; on α2-GABAA receptor [2] it was 104%. For the same molecule, the Ki on α2-GABAA receptor [1] was 5.79 nM.

As to `CCn1cnc2c(-c3ccc(F)c(-c4ccn5c(C6CCOC(C)(C)C6)nnc5c4OC)c3)cnnc21` (centres unmarked) [Example 16, 4-(3-(3-(2,2-Dimethyltetrahydro-2H-pyran-4-yl)-8-methoxy-[1,2,4]triazolo[4,3-a]pyridin-7-yl)-4-fluorophenyl)-7-ethyl-7H-imidazo[4,5-c]pyridazine], the activation at 0.1 µM at α1-GABAA receptor is -56%; at α2-GABAA receptor [2], 95%. Further, at α2-GABAA receptor [1], the Ki is 8.17 nM.

Take `CCn1cnc2c(-c3ccc(F)c(-c4ccn5c(C6CCC6)nnc5c4OC)c3)cnnc21` [Example 17, 4-(3-(3-Cyclobutyl-8-methoxy-[1,2,4]triazolo[4,3-a]pyridin-7-yl)-4-fluorophenyl)-7-ethyl-7H-imidazo[4,5-c]pyridazine]: the activation at 0.1 µM on α1-GABAA receptor was -49%; on α2-GABAA receptor [2], 100%. The Ki on α2-GABAA receptor [1] was 2.85 nM.

In the case of `COc1c(-c2cc(-c3cnnc4c3ncn4C(C)C)ccc2F)ccn2c(C3CC3)nnc12` [Example 27, 4-(3-(3-Cyclopropyl-8-methoxy-[1,2,4]triazolo[4,3-a]pyridin-7-yl)-4-fluorophenyl)-7-isopropyl-7H-imidazo[4,5-c]pyridazine], the results for the activation at 0.1 µM on α1-GABAA receptor and on α2-GABAA receptor [2] were 4% and 110%, respectively. The Ki at α2-GABAA receptor [1] is 6.05 nM.

As for `CCn1cnc2c(-c3ccc(F)c(-c4ccn5c(C6COC6)nnc5c4OC)c3)cnnc21` [Example 28, 7-Ethyl-4-(4-fluoro-3-(8-methoxy-3-(oxetan-3-yl)-[1,2,4]triazolo[4,3-a]pyridin-7-yl)phenyl)-7H-imidazo[4,5-c]pyridazine], the activation at 0.1 µM worked out at 19% on α1-GABAA receptor and 126% on α2-GABAA receptor [2]. The inhibition constant Ki at α2-GABAA receptor [1] was 5.12 nM.

`CCn1cnc2c(-c3ccc(F)c(-c4ccn5c(C(C)C)nnc5c4OC)c3)cnnc21` [Example 29, 7-Ethyl-4-(4-fluoro-3-(8-methoxy-3-isopropyl-[1,2,4]triazolo[4,3-a]pyridin-7-yl)phenyl)-7H-imidazo[4,5-c]pyridazine]: the activation at 0.1 µM at α1-GABAA receptor was -51%; on α2-GABAA receptor [2], 156%. Besides, on α2-GABAA receptor [1], the Ki was 6.6 nM.

For `CCc1cn2cc(-c3cc(-c4cnnc5c4ncn5CC)ccc3F)c(OC)cc2n1` [Example 30, 7-Ethyl-4-(3-(2-ethyl-7-methoxyimidazo[1,2-a]pyridin-6-yl)-4-fluorophenyl)-7H-imidazo[4,5-c]pyridazine], the activation at 0.1 µM was 6% at α1-GABAA receptor and 143% at α2-GABAA receptor [2]. In addition, the Ki at α2-GABAA receptor [1] was 12 nM.

As to `CCn1cnc2c(-c3ccc(F)c(-c4ccn5c(C)nnc5c4OC)c3)cnnc21` [Example 32, 7-Ethyl-4-(4-fluoro-3-(8-methoxy-3-methyl-[1,2,4]triazolo[4,3-a]pyridin-7-yl)phenyl)-7H-imidazo[4,5-c]pyridazine], the activation at 0.1 µM was -39% on α1-GABAA receptor and 102% on α2-GABAA receptor [2]. Moreover, on α2-GABAA receptor [1], the Ki is 2.89 nM.

On to `CCn1cnc2c(-c3ccc(F)c(-c4ccn5c(C6CCOCC6)nnc5c4OC)c3)cnnc21` [Example 34, 7-Ethyl-4-(4-fluoro-3-(8-methoxy-3-(tetrahydro-2H-pyran-4-yl)-[1,2,4]triazolo[4,3-a]pyridin-7-yl)phenyl)-7H-imidazo[4,5-c]pyridazine], for which the activation at 0.1 µM on α1-GABAA receptor amounted to 25%; at α2-GABAA receptor [2], 95%. For the same molecule, the inhibition constant (Ki) at α2-GABAA receptor [1] is 8.13 nM.

Take `CCn1cnc2c(-c3ccc(F)c(-c4cn5cc(C6CCOCC6)nc5cc4OC)c3)cnnc21` [Example 36, 7-Ethyl-4-(4-fluoro-3-(7-methoxy-2-(tetrahydro-2H-pyran-4-yl)imidazo[1,2-a]pyridin-6-yl)phenyl)-7H-imidazo[4,5-c]pyridazine]: the values for the activation at 0.1 µM on α1-GABAA receptor and on α2-GABAA receptor [2] were 49% and 89%, respectively. On α2-GABAA receptor [1], the Ki is 11.8 nM.

With `CCn1cnc2c(-c3ccc(F)c(-c4ccn5c(C6CC6)nnc5c4OC)c3)cnnc21` [Example 38, 4-(3-(3-Cyclopropyl-8-methoxy-[1,2,4]triazolo[4,3-a]pyridin-7-yl)-4-fluorophenyl)-7-ethyl-7H-imidazo[4,5-c]pyridazine], the activation at 0.1 µM on α1-GABAA receptor was -14%; at α2-GABAA receptor [2] it was 94%. In addition, at α2-GABAA receptor [1], the Ki was 6.53 nM.
